The target of one assay is T1, MEK1 activated ERK1 (Homo sapiens, UniProt P27361).
T1 construct: purchased Millipore (Billerica, Mass.) 14-439-K
Description: Omnia continuous-read kinase assay for potency against MEK1 activated ERK1. Format: biochemical. The method, boiled down:
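Apparent IC50 came from initial reaction slopes (RFU vs time) plotted against log inhibitor with a variable-slope fit. Reactions were started with ERK1 (4 nM final) added to 50 μM ATP, roughly at its appKM, and 10 μM Sox-conjugated ST17 peptide in 20 mM Tris pH 7.5, 5 mM MgCl2. Fluorescence was monitored every 71 seconds.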

For assay [1], the system named is ERK1/2 phosphorylation of p90RSK in HCT116 cells. Description: Detection of total and phospho-RSK by MSD ELISA (HCT116). Format: cell-based. The note with it: Homo sapiens, HCT-116, read-out: ERK1/ERK2 PRSK HCT116 EC50. The method, boiled down:
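HCT116 cells treated with compound in RPMI/10% FBS for 2 h at 37° C, then lysed. Phospho-RSK (Ser380) and total RSK in lysates measured by MSD sandwich electrochemiluminescence ELISA as a readout of ERK1/2 activity.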
A general note: An ELISA detects its analyte on a solid surface through an enzyme-linked reagent.

The target of the next assay is T2, Erk1 (Homo sapiens, UniProt P27361).
T2 construct: purchased Millipore 14-439
As to the kind of experiment: Protein Mass Modification Assay (intact protein MALDI, 60 min, 10-fold excess of compound). It is filed as binding. Put shortly:
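Human Erk1 was incubated 60 min at room temperature with a 10-fold molar excess of compound, then analysed as intact protein by MALDI with sinapinic acid matrix. The centroid mass shift versus untreated protein was divided by compound molecular weight to give percent modified protein.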

Where two headings read alike, the source gives them in different places.

T2 sequence (P27361 whole entry): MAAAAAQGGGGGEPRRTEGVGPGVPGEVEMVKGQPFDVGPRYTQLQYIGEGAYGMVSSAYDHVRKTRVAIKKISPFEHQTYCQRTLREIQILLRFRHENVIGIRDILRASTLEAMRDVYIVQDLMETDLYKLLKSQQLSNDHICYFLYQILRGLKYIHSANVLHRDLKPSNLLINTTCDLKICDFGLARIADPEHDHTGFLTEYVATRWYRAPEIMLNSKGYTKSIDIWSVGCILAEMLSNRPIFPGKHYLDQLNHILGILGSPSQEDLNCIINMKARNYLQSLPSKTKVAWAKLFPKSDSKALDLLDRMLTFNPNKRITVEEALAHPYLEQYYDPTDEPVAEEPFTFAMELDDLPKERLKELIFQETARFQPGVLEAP
T1 sequence (P27361 whole entry): as above

For orientation: IC50 means the midpoint of a concentration-inhibition curve. Consider `C=CC(=O)Nc1cc(C)ccc1Nc1nc(Nc2nc(OC)nc(OC)n2)ncc1C(F)(F)F` [Compound I-371, N-(2-((2-((4,6-dimethoxy-1,3,5-triazin-2-yl)amino)-5-(trifluoromethyl)pyrimidin-4-yl)amino)-5-methylphenyl)acrylamide], for which the IC50 at MEK1 activated ERK1 (ATP at KM, WT) was in the range of 0.101 to 0.5 µM. Besides, the EC50 in assay [1] was more than 1 µM. Further, the “ERK1 Mass Mod (%)” value on Erk1 is “F (a mass modification of 31-69%)”.

On to `C=CC(=O)Nc1cc(C)ccc1Nc1nc(Nc2c[nH]c(=O)cc2C)ncc1C(F)(F)F` [Compound I-370, N-(5-methyl-2-((2-((4-methyl-6-oxo-1,6-dihydropyridin-3-yl)amino)-5-(trifluoromethyl)pyrimidin-4-yl)amino)phenyl)acrylamide], for which the IC50 on MEK1 activated ERK1 (ATP at KM, WT) lay in the range of 0.101 to 0.5 µM. In assay [1], the EC50 lay within 0.501 to 0.999 µM. Also, the “ERK1 Mass Mod (%)” value on Erk1 is “E (a mass modification of ≧70%)”.

`C=CC(=O)Nc1cc(OCC(N)=O)ccc1Nc1nc(NC2CCOCC2)ncc1C(F)(F)F` [Compound I-387, N-(5-(2-amino-2-oxoethoxy)-2-((2-((tetrahydro-2H-pyran-4-yl)amino)-5-(trifluoromethyl)pyrimidin-4-yl)amino)phenyl)acrylamide]: the IC50 on MEK1 activated ERK1 (ATP at KM, WT) lay within 0.101 to 0.5 µM. Further, the EC50 in assay [1] was 0.101 to 0.5 µM. For the same compound, the “ERK1 Mass Mod (%)” value on Erk1 was “E (a mass modification of ≧70%)”.

Take `C=CC(=O)Nc1ccccc1Nc1nc(Nc2cc(OC)nc(N3CCN(C(C)=O)CC3)c2)ncc1C(F)(F)F` [Compound I-92]: the IC50 on MEK1 activated ERK1 (MEK1 activated ERK1, ATP at KM, read-out: ERK1 Omnia WT ATP KM IC50) is less than 0.1 µM. Also, the EC50 in assay [1] is less than 0.1 µM. Further, on Erk1, the “ERK1 Mass Mod (%)” value is listed as “E (a mass modification of ≧70%)”.

Regarding `C=CC(=O)Nc1cc(C)ccc1Nc1nc(Nc2cc(OC)ncc2C(F)F)ncc1C(F)(F)F` [Compound I-431, N-(2-((2-((5-(difluoromethyl)-2-methoxypyridin-4-yl)amino)-5-(trifluoromethyl)pyrimidin-4-yl)amino)-5-methylphenyl)acrylamide], on MEK1 activated ERK1 (ATP at KM, WT), the IC50 is 0.501 to 0.999 µM. Also, the EC50 in assay [1] was in the range of 0.501 to 0.999 µM. Further, the “ERK1 Mass Mod (%)” value on Erk1 was “E (a mass modification of ≧70%)”.

Take `C=CC(=O)Nc1cc(C)ccc1Nc1nc(Nc2cc(OCCOC)ncc2C)ncc1C(F)(F)F` [Compound I-359, N-(2-((2-((2-(2-methoxyethoxy)-5-methylpyridin-4-yl)amino)-5-(trifluoromethyl)pyrimidin-4-yl)amino)-5-methylphenyl)acrylamide]: the IC50 at MEK1 activated ERK1 (ATP at KM, WT) is 0.101 to 0.5 µM. In addition, the EC50 in assay [1] lay within 0.501 to 0.999 µM. For the same compound, on Erk1, the “ERK1 Mass Mod (%)” value is “E (a mass modification of ≧70%)”.

Take `C=CC(=O)Nc1cc(C)ccc1Nc1nc(Nc2cc(P(C)(C)=O)ncc2C)ncc1C(F)(F)F` [Compound I-343, N-(2-((2-((2-(dimethylphosphoryl)-5-methylpyridin-4-yl)amino)-5-(trifluoromethyl)pyrimidin-4-yl)amino)-5-methylphenyl)acrylamide]: on MEK1 activated ERK1 (ATP at KM, WT), the IC50 was 0.101 to 0.5 µM. The EC50 in assay [1] fell in the range of 0.101 to 0.5 µM. For the same compound, the “ERK1 Mass Mod (%)” value on Erk1 is listed as “F (a mass modification of 31-69%)”.

As for `C=CC(=O)Nc1cc(CN2CCN(S(C)(=O)=O)CC2)ccc1Nc1nc(Nc2nc(OC)ncc2C)ncc1C(F)(F)F` [Compound I-383, N-(2-((2-((2-methoxy-5-methylpyrimidin-4-yl)amino)-5-(trifluoromethyl)pyrimidin-4-yl)amino)-5-((4-(methylsulfonyl)piperazin-1-yl)methyl)phenyl)acrylamide], the IC50 on MEK1 activated ERK1 (ATP at KM, WT) lay within 0.101 to 0.5 µM. Also, the EC50 in assay [1] lay in the range of 0.101 to 0.5 µM. The “ERK1 Mass Mod (%)” value at Erk1 is reported as “E (a mass modification of ≧70%)”.
